Laboratory results from US20240262806A1, “INHIBITORS OF NLRP3” (PTC THERAPEUTICS, INC., priority 2021, published 2024).

Tested on: NLRP3 inflammasome
Assay: IL-1β Secretion Assay (NLRP3-dependent IL-1β secretion in PMA-differentiated THP-1 cells, nigericin activation, HTRF)
Format: cell-based
Settings: Homo sapiens, THP-1, THP-1 cells, 100 ng/mL PMA 24 h, compound 20 h, 2.5 μM Nigericin 3 h; read-out: IC50 IL-1β Inhibition
Summary of the method: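 PMA-differentiated THP-1 cells in RPMI with 5% FBS were treated with compounds at 7 concentrations in threefold DMSO dilutions. NLRP3 was activated with nigericin and secreted IL-1β measured by HTRF. IC50 from a logistic fit of percent inhibition versus concentration.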

CN1CCC[C@@H](Nc2nnc(-c3ccc(C#N)cc3O)c3ccccc23)C1 [Compound I-24]
IC50: < 1 nM

COc1cc(C)cc(O)c1-c1nnc(N[C@@H]2CCCN(C)C2)c2cnccc12 [Compound I-267]
IC50: 1 to 10 nM

Cc1ccc(-c2nnc(N[C@@H]3CCCN(C)C3)c3ccncc23)c(O)c1 [Compound I-99]
IC50: < 1 nM

Oc1cc(C(F)(F)F)ccc1-c1nnc(N[C@@H]2CCC[C@H](O)C2)n2ccc(F)c12 [Compound I-526]
IC50: 10 to 100 nM

CN1CCC[C@@H](Nc2nnc(-c3ccc(Cl)cc3O)c3cnccc23)C1 [Compound I-59]
IC50: < 1 nM

CN1CCC[C@@H](Nc2nnc(-c3ccc(C(F)(F)F)cc3OC(F)F)c3ccccc23)C1 [Compound I-120]
IC50: 1 to 10 nM

CN1CCC[C@@H](Nc2nnc(-c3ccc(C(F)(F)F)cc3-c3cnn(C)c3)c3cnccc23)C1 [Compound I-189]
IC50: 10 to 100 nM

CCN1CCC[C@@H](Nc2nnc(-c3c(O)cc(OC(F)F)cc3F)c3cccn23)C1 [Compound I-616]
IC50: < 1 nM

CCN1CCC[C@@H](Nc2nnc(-c3c(C)cc(C(F)(F)F)cc3O)c3cccn23)C1 [Compound I-606]
IC50: < 1 nM

CN(c1nnc(-c2ccc(C(F)(F)F)cc2O)c2ccncc12)[C@@H]1CCCNC1 [Compound I-292, (R)-2-(4-(Methyl(piperidin-3-yl)amino)pyrido[3,4-d]pyridazin-1-yl)-5-(trifluoromethyl)phenol]
IC50: 1 to 10 nM

Cc1ccc(-c2nnc(N[C@@H]3CCCN(C)C3)c3cnccc23)c(C#N)c1 [Compound I-136]
IC50: 1 to 10 nM

Cc1cc(C#N)ccc1-c1nnc(N[C@@H]2CCCN(C)C2)c2cnccc12 [Compound I-217]
IC50: 10 to 100 nM

Cc1cc(C(F)(F)F)cc(F)c1-c1nnc(N[C@@H]2CCCN(C)C2)c2cnccc12 [Compound I-222]
IC50: 1 to 10 nM

CN1CCC[C@@H](Nc2nnc(-c3ccc(Cl)cc3O)c3c2CCC3)C1 [Compound I-314]
IC50: 1 to 10 nM

CCN1CCC[C@@H](Nc2nnc(-c3ccc(C(F)(F)F)cc3OC(F)F)c3cc(C)nn23)C1 [Compound I-556]
IC50: 1 to 10 nM

COc1ccc(-c2nnc(N[C@@H]3CCCN(C)C3)n3cccc23)c(C(F)(F)F)c1 [Compound I-370]
IC50: 1 to 10 nM

CN1CCC[C@@H](Nc2nnc(-c3ccc(C(F)(F)F)cc3OC(F)F)c3ccncc23)C1 [Compound I-121]
IC50: < 1 nM

COc1cc(Br)ccc1-c1nnc(N[C@@H]2CCCNC2)n2nccc12 [Compound I-390]
IC50: 100 to 300 nM

CC#Cc1cc(C(F)(F)F)ccc1-c1nnc(N[C@@H]2CCCN(C)C2)c2cnccc12 [Compound I-228, (R)—N-(1-methylpiperidin-3-yl)-1-(2-(prop-1-yn-1-yl)-4-(trifluoromethyl)phenyl)pyrido[3,4-d]pyridazin-4-amine]
IC50: 1 to 10 nM

Cc1cc(O)c(-c2nnc(N[C@@H]3CCCN(C)C3)c3cnccc23)c(O)c1 [Compound I-268]
IC50: < 1 nM

C[C@]1(O)C[C@@H](Nc2nnc(-c3ccc(C(F)(F)F)cc3O)c3cccn23)C1 [Compound I-406]
IC50: 1 to 10 nM

CN1CCC[C@@H](Nc2nnc(-c3ccc(C(F)(F)F)cc3Cl)c3ccncc23)C1 [Compound I-143, (R)-1-(2-Chloro-4-(trifluoromethyl)phenyl)-N-(1-methylpiperidin-3-yl)pyrido[3,4-d]pyridazin-4-amine]
IC50: 1 to 10 nM

C[C@]1(O)C[C@@H](Nc2nnc(-c3c(O)cc(C4CC4)cc3F)c3cccn23)C1 [Compound I-467]
IC50: 1 to 10 nM

Oc1cc(C(F)(F)F)ccc1-c1nnc(N[C@@H]2CCC[C@H](O)C2)n2cccc12 [Compound I-399]
IC50: 10 to 100 nM

Cc1cc2c(N[C@@H]3CCCNC3)nnc(-c3ccc(C(F)(F)F)cc3O)n2n1 [Compound I-332]
IC50: 10 to 100 nM

OCCN1CCC[C@@H](Nc2nnc(-c3ccc(C(F)(F)F)cc3OC(F)F)c3cccn23)C1 [Compound I-325, 2-[(3R)-3-[[1-[2-(Difluoromethoxy)-4-(trifluoromethyl)phenyl]pyrrolo[1,2-d][1,2,4]triazin-4-yl]amino]-1-piperidyl]ethanol]
IC50: 1 to 10 nM

CN1CCC[C@@H](Nc2nnc(-c3ccc(-c4ccccc4)cc3O)c3ccccc23)C1 [Compound I-39]
IC50: 1 to 10 nM

CN(C)C1CCC[C@@H](Nc2nnc(-c3c(O)cc(C4CC4)cc3F)c3cccn23)C1 (stereo partly drawn) [Compound I-541]
IC50: < 1 nM

OCCN1CCC[C@@H](Nc2nnc(-c3c(O)cc(Cl)cc3F)c3ccncc23)C1 [Compound I-282, 5-Chloro-3-fluoro-2-[4-[[(3R)-1-(2-hydroxyethyl)-3-piperidyl]amino]pyrido[3,4-d]-pyridazin-1-yl]phenol]
IC50: < 1 nM

Cc1cc(O)c(-c2nnc(N[C@@H]3CCCN(CCOC(F)F)C3)n3cccc23)c(F)c1 [Compound I-344]
IC50: < 1 nM

CN1CCN(C)CC(Nc2nnc(-c3ccc(C(F)(F)F)cc3O)c3ccncc23)C1 [Compound I-264]
IC50: 10 to 100 nM

CN1CCC[C@@H](Nc2nnc(-c3ccc(O)cc3O)c3ccccc23)C1 [Compound I-15, (R)-4-(4-((1-methylpiperidin-3-yl)amino)phthalazin-1-yl)benzene-1,3-diol]
IC50: 100 to 300 nM

COc1cccc(-c2nnc(N[C@@H]3CCCN(C)C3)c3cnccc23)c1O [Compound I-73]
IC50: < 1 nM

N[C@H]1CCC[C@@H](Nc2nnc(-c3ccc(C(F)(F)F)cc3OC(F)F)c3cccn23)C1 [Compound I-378]
IC50: 10 to 100 nM

CN1CCC[C@@H](Nc2nnc(-c3ccc(C(F)(F)F)cc3O)c3cc(F)ccc23)C1 [Compound I-9]
IC50: 1 to 10 nM

C[C@]1(O)C[C@H](Nc2nnc(-c3ccc(C(F)(F)F)cc3O)c3ccncc23)C1 [Compound I-316]
IC50: 1 to 10 nM

Cc1ccn2c(N[C@@H]3CCCN(C)C3)nnc(-c3ccc(C(F)(F)F)cc3O)c12 [Compound I-321, (R)-2-(8-Methyl-4-((1-methylpiperidin-3-yl)amino)pyrrolo[1,2-d][1,2,4]triazin-1-yl)-5-(trifluoromethyl)phenol]
IC50: 10 to 100 nM

CC(C)N1CCC[C@@H](Nc2nnc(-c3ccc(C(F)(F)F)cc3C(F)(F)F)c3cccn23)C1 [Compound I-530]
IC50: < 1 nM

FC(F)Oc1cc(C(F)(F)F)ccc1-c1nnc(N[C@@H]2CCCNC2)c2ccncc12 [Compound I-231]
IC50: 10 to 100 nM

C[C@@H](O)CNc1nnc(-c2ccc(C(F)(F)F)cc2OC(F)F)c2c(F)ccn12 [Compound I-440]
IC50: 10 to 100 nM

COc1cc(C(F)(F)F)ccc1-c1nnc(NC2CC3CCC(C3)N2C)c2cnccc12 (stereo not drawn) [Compound I-213]
IC50: 100 to 300 nM

OCCN1CCC[C@@H](Nc2nnc(-c3c(O)cc(C4CC4)cc3F)c3ccncc23)C1 [Compound I-284, 5-Cyclopropyl-3-fluoro-2-[4-[[(3R)-1-(2-hydroxyethyl)-3-piperidyl]amino]-pyrido[3,4-d]pyridazin-1-yl]phenol]
IC50: < 1 nM

CN1CCC[C@@H](Nc2nnc(-c3ccc(Cl)cc3C#N)c3ccncc23)C1 [Compound I-157]
IC50: 1 to 10 nM

CN1CCC[C@@H](Nc2nnc(-c3ccc(C(F)(F)F)cc3O)c3c(Cl)ccn23)C1 [Compound I-104, 2-[8-Chloro-4-[[(3R)-1-methyl-3-piperidyl]amino]pyrrolo[1,2-d][1,2,4]triazin-1-yl]-5-(trifluoromethyl)phenol]
IC50: 1 to 10 nM

CN1CCC[C@@H](Nc2nnc(-c3ccc(C(F)(F)F)cc3-c3cccnc3)c3ccncc23)C1 [Compound I-240]
IC50: 100 to 300 nM
